Experimental data from US8889854B2, “C-17 bicyclic amines of triterpenoids with HIV maturation inhibitory activity” (priority 2012, dated 2014).

These molecules were tested on recombinant NL4-3 virus (Renilla luciferase in nef, Gag P373S; NLRluc) (assay: HIV Cell Culture Assay (luciferase reporter virus in MT-2 cells)). Settings: Renilla, NL43, MT-2 cells infected for 4-5 days with NLRluc recombinants; luciferase activity.
Format: cell-based
Description: MT-2 cells and 293T cells were obtained from the NIH AIDS Research and Reference Reagent Program. MT-2 cells were propagated in RPMI 1640 media supplemented with 10% heat inactivated fetal bovine serum, […]. The 293T cells were propagated in DMEM media supplemented with 10% heat inactivated fetal bovine serum (FBS), 100 units/mL penicillin G and 100 μg/mL streptomycin. The proviral DNA clone of NL4-3 was obtained from the NIH AIDS Research and Reference Reagent Program. A recombinant NL4-3 virus, in which a section of the nef gene from NL4-3 was replaced with the Renilla luciferase gene, was used as a reference virus. In addition, residue Gag P373 was converted to P373S. Briefly, the recombinant virus was prepared by transfection of the altered proviral clone of NL4-3. Transfections were performed in 293T cells using LipofectAMINE PLUS from Invitrogen (Carlsbad, Calif.), according to manufacturer's instruction. The virus was titered in MT-2 cells using luciferase enzyme activity as a marker. Luciferase was quantitated using the Dual Luciferase kit from Promega (Madison, Wis.), with modifications to the manufacturer's protocol. The diluted Passive Lysis solution was pre-mixed with the re-suspended Luciferase Assay Reagent and the re-suspended Stop & Glo Substrate (2:1:1 ratio). Fifty (50) μL of the mixture was added to each aspirated well on assay plates and luciferase activity was measured immediately on a Wallac TriLux (Perkin-Elmer). Antiviral activities of inhibitors toward the recombinant virus were quantified by measuring luciferase activity in cells infected for 4-5 days with NLRluc recombinants in the presence serial dilutions of the inhibitor. Table 1 is the key for the data in Table 2.

Structure (SMILES) | EC50 [nM]
C=C(C)[C@@H]1CC[C@]2(NCCN3C[C@H]4C[C@@H](C3)N4S(C)(=O)=O)CC[C@]3(C)[C@H](CC[C@@H]4[C@@]5(C)CC=C(c6ccc(C(=O)O)cc6)C(C)(C)[C@@H]5CC[C@]43C)[C@@H]12 [Example 14, 4-((1R,3aS,5aR,5bR,7aR,11aS,11bR,13aR,13bR)-5a,5b,8,8,11a-pentamethyl-3a-((2-((1R,5S)-6-(methylsulfonyl)-3,6-diazabicyclo[3.1.1]heptan-3-yl)ethyl)amino)-1-(prop-1-en-2-yl)-2,3,3a,4,5,5a,5b,6,7,7a,8,11,11a,11b,12,13,13a,13b-octadecahydro-1H-cyclopenta[a]chrysen-9-yl)benzoic acid] | 3.24
C=C(C)[C@@H]1CC[C@]2(NCCN3CCC4(C3)CN(S(C)(=O)=O)C4)CC[C@]3(C)[C@H](CC[C@@H]4[C@@]5(C)CC=C(c6ccc(C(=O)O)cc6)C(C)(C)[C@@H]5CC[C@]43C)[C@@H]12 [Example 15, 4-((1R,3aS,5aR,5bR,7aR,11aS,11bR,13aR,13bR)-5a,5b,8,8,11a-pentamethyl-3a-((2-(2-(methylsulfonyl)-2,6-diazaspiro[3.4]octan-6-yl)ethyl)amino)-1-(prop-1-en-2-yl)-2,3,3a,4,5,5a,5b,6,7,7a,8,11,11a,11b,12,13,13a,13b-octadecahydro-1H-cyclopenta[a]chrysen-9-yl)benzoic acid] | 1.65
C=C(C)[C@@H]1CC[C@]2(NCCN3CC4(C3)CN(S(C)(=O)=O)C4)CC[C@]3(C)[C@H](CC[C@@H]4[C@@]5(C)CC=C(c6ccc(C(=O)O)cc6)C(C)(C)[C@@H]5CC[C@]43C)[C@@H]12 [Example 16, 4-((1R,3aS,5aR,5bR,7aR,11aS,11bR,13 aR,13bR)-5a,5b,8,8,11a-pentamethyl-3a-((2-(6-(methylsulfonyl)-2,6-diazaspiro[3.3]heptan-2-yl)ethyl)amino)-1-(prop-1-en-2-yl)-2,3,3a,4,5,5a,5b,6,7,7a,8,11,11a,11b,12,13,13a,13b-octadecahydro-1H-cyclopenta[a]chrysen-9-yl)benzoic acid] | 1.64
C=C(C)[C@@H]1CC[C@]2(NCCN3[C@@H]4CCC[C@H]3COC4)CC[C@]3(C)[C@H](CC[C@@H]4[C@@]5(C)CC=C(c6ccc(C(=O)O)cc6)C(C)(C)[C@@H]5CC[C@]43C)[C@@H]12 [Example A1, 4-((1R,3aS,5aR,5bR,7aR,11aS,11bR,13aR,13bR)-3a-((2-((1R,5S)-3-oxa-9-azabicyclo[3.3.1]nonan-9-yl)ethyl)amino)-5a,5b,8,8,11a-pentamethyl-1-(prop-1-en-2-yl)-2,3,3a,4,5,5a,5b,6,7,7a,8,11,11a,11b,12,13,13a,13b-octadecahydro-1H-cyclopenta[a]chrysen-9-yl)benzoic acid] | 30
C=C(C)[C@@H]1CC[C@]2(NCCN3CC4CCC(C3)O4)CC[C@]3(C)[C@H](CC[C@@H]4[C@@]5(C)CC=C(c6ccc(C(=O)O)cc6)C(C)(C)[C@@H]5CC[C@]43C)[C@@H]12 [Example A2, 4-((1R,3aS,5aR,5bR,7aR,11aS,11bR,13aR,13bR)-3a-((2-(8-oxa-3-azabicyclo[3.2.1]octan-3-yl)ethyl)amino)-5a,5b,8,8,11a-pentamethyl-1-(prop-1-en-2-yl)-2,3,3a,4,5,5a,5b,6,7,7a,8,11,11a,11b,12,13,13a,13b-octadecahydro-1H-cyclopenta[a]chrysen-9-yl)benzoic acid] | 71
C=C(C)[C@@H]1CC[C@]2(NCCN3C4COCC3COC4)CC[C@]3(C)[C@H](CC[C@@H]4[C@@]5(C)CC=C(c6ccc(C(=O)O)cc6)C(C)(C)[C@@H]5CC[C@]43C)[C@@H]12 [Example A3, 4-((1R,3aS,5aR,5bR,7aR,11aS,11bR,13aR,13bR)-3a-((2-((1R,5R)-3,7-dioxa-9-azabicyclo[3.3.1]nonan-9-yl)ethyl)amino)-5a,5b,8,8,11a-pentamethyl-1-(prop-1-en-2-yl)-2,3,3a,4,5,5a,5b,6,7,7a,8,11,11a,11b,12,13,13a,13b-octadecahydro-1H-cyclopenta[a]chrysen-9-yl)benzoic acid] | 83
C=C(C)[C@@H]1CC[C@]2(NCCN3C4CCC3CC(C)(O)C4)CC[C@]3(C)[C@H](CC[C@@H]4[C@@]5(C)CC=C(c6ccc(C(=O)O)cc6)C(C)(C)[C@@H]5CC[C@]43C)[C@@H]12 (stereo partly drawn) [Example A4, 4-((1R,3aS,5aR,5bR,7aR,11aS,11bR,13aR,13bR)-3a-((2-((1R,3S,5S)-3-hydroxy-3-methyl-8-azabicyclo[3.2.1]octan-8-yl)ethyl)amino)-5a,5b,8,8,11a-pentamethyl-1-(prop-1-en-2-yl)-2,3,3a,4,5,5a,5b,6,7,7a,8,11,11a,11b,12,13,13a,13b-octadecahydro-1H-cyclopenta[a]chrysen-9-yl)benzoic acid] | 8.8

Same assay, conditions: Renilla, NL43, MT-2 cells infected for 4-5 days with NLRluc recombinants; luciferase activity; reported as group A/B

Structure (SMILES) | EC50 [nM]
C=C(C)[C@@H]1CC[C@]2(NCCN3C[C@@H]4C[C@H]3CN4S(C)(=O)=O)CC[C@]3(C)[C@H](CC[C@@H]4[C@@]5(C)CC=C(c6ccc(C(=O)O)cc6)C(C)(C)[C@@H]5CC[C@]43C)[C@@H]12 [Example 11, 4-((1R,3aS,5aR,5bR,7aR,11aS,11bR,13aR,13bR)-5a,5b,8,8,11a-pentamethyl-3a-((2-((1S,4S)-5-(methylsulfonyl)-2,5-diazabicyclo[2.2.1]heptan-2-yl)ethyl)amino)-1-(prop-1-en-2-yl)-2,3,3a,4,5,5a,5b,6,7,7a,8,11,11a,11b,12,13,13a,13b-octadecahydro-1H-cyclopenta[a]chrysen-9-yl)benzoic acid] | < 100
CC(C)[C@@H]1CC[C@]2(NCCN3C[C@@H]4C[C@H]3CN4S(C)(=O)=O)CC[C@]3(C)[C@H](CC[C@@H]4[C@@]5(C)CC=C(c6ccc(C(=O)O)cc6)C(C)(C)[C@@H]5CC[C@]43C)[C@@H]12 [Example 12, 4-((1S,3aS,5aR,5bR,7aR,11aS,11bR,13aR,13bR)-1-isopropyl-5a,5b,8,8,11a-pentamethyl-3a-((2-((1S,4S)-5-(methylsulfonyl)-2,5-diazabicyclo[2.2.1]heptan-2-yl)ethyl)amino)-2,3,3a,4,5,5a,5b,6,7,7a,8,11,11a,11b,12,13,13a,13b-octadecahydro-1H-cyclopenta[a]chrysen-9-yl)benzoic acid] | < 100
C=C(C)[C@@H]1CC[C@]2(NCCN3C[C@H]4CC[C@@H](C3)N4C(=O)OC(C)(C)C)CC[C@]3(C)[C@H](CC[C@@H]4[C@@]5(C)CC=C(c6ccc(C(=O)O)cc6)C(C)(C)[C@@H]5CC[C@]43C)[C@@H]12 [Example 13, 4-((1R,3aS,5aR,5bR,7aR,11aS,11bR,13aR,13bR)-3a-((2-((1R,5S)-8-(tert-butoxycarbonyl)-3,8-diazabicyclo[3.2.1]octan-3-yl)ethyl)amino)-5a,5b,8,8,11a-pentamethyl-1-(prop-1-en-2-yl)-2,3,3a,4,5,5a,5b,6,7,7a,8,11,11a,11b,12,13,13a,13b-octadecahydro-1H-cyclopenta[a]chrysen-9-yl)benzoic acid] | > 100
C=C(C)[C@@H]1CC[C@]2(NCCN3CC4C(C3)C4NS(C)(=O)=O)CC[C@]3(C)[C@H](CC[C@@H]4[C@@]5(C)CC=C(c6ccc(C(=O)O)cc6)C(C)(C)[C@@H]5CC[C@]43C)[C@@H]12 (stereo partly drawn) [Example 17, 4-((1R,3aS,5aR,5bR,7aR,11aS,11bR,13aR,13bR)-5a,5b,8,8,11a-pentamethyl-3a-((2-(6-(methylsulfonamido)-3-azabicyclo[3.1.0]hexan-3-yl)ethyl)amino)-1-(prop-1-en-2-yl)-2,3,3a,4,5,5a,5b,6,7,7a,8,11,11a,11b,12,13,13a,13b-octadecahydro-1H-cyclopenta[a]chrysen-9-yl)benzoic acid] | < 100
C=C(C)[C@@H]1CC[C@]2(NCCN3C[C@H]4C[C@@H]3CS4(=O)=O)CC[C@]3(C)[C@H](CC[C@@H]4[C@@]5(C)CC=C(c6ccc(C(=O)O)cc6)C(C)(C)[C@@H]5CC[C@]43C)[C@@H]12 [Example 18, 4-((1R,3aS,5aR,5bR,7aR,11aS,11bR,13aR,13bR)-3a-((2-((1R,4R)-2,2-dioxido-2-thia-5-azabicyclo[2.2.1]heptan-5-yl)ethyl)amino)-5a,5b,8,8,11a-pentamethyl-1-(prop-1-en-2-yl)-2,3,3a,4,5,5a,5b,6,7,7a,8,11,11a,11b,12,13,13a,13b-octadecahydro-1H-cyclopenta[a]chrysen-9-yl)benzoic acid] | < 100
C=C(C)[C@@H]1CC[C@]2(NCCN3CC4CC3CO4)CC[C@]3(C)[C@H](CC[C@@H]4[C@@]5(C)CC=C(C6=CCC(C(=O)O)CC6)C(C)(C)[C@@H]5CC[C@]43C)[C@@H]12 (stereo partly drawn) [Example B1, 4-((1R,3aS,5aR,5bR,7aR,11aS,11bR,13aR,13bR)-3a-((2-(2-oxa-5-azabicyclo[2.2.1]heptan-5-yl)ethyl)amino)-5a,5b,8,8,11a-pentamethyl-1-(prop-1-en-2-yl)-2,3,3a,4,5,5a,5b,6,7,7a,8,11,11a,11b,12,13,13a,13b-octadecahydro-1H-cyclopenta[a]chrysen-9-yl)cyclohex-3-enecarboxylic acid] | < 100
